Experimental findings from PMC9031226, “Preclinical Therapeutic Assessment of a New Chemotherapeutics [Dichloro(4,4’-Bis(2,2,3,3-Tetrafluoropropoxy) Methyl)-2,2’-Bipryridine) Platinum] in an Orthotopic Patient-Derived Xenograft Model of Triple-Negative Breast Cancers” (Pharmaceutics, 2022) are described below.

One data set has as its system SK-OV-3. The data set is described as follows: MTT cell viability assay on SK-OV-3. It counts as cell-based, human. The note with it: for IC50: SK-OV-3, MTT assay, 48 h. On the procedure: Human cancer cell lines, including MDA-MB-231, MCF-7, COLO205 and SK-OV-3, used in this study were purchased from American Type Culture Collection (ATCC, Manassas, VA, USA). All cell cultures were maintained in a 5% CO2-containing incubator at 37 °C. Triple-negative breast cancer cell line MDA-MB-231 and estrogen receptor-positive breast cancer cells MCF-7 were cultured in Dulbecco’s Modified Eagle Medium/Nutrient Mixture F-12 medium (DMEM/F12, Thermo Fisher Scientific Inc., Waltham, MA, USA) supplemented with 1% HyClone Penicillin-Streptomycin 100X solution (Cytiva, Marlborough, MA, USA) and 10% (v/v) fetal bovine serum (Thermo Fisher Scientific Inc., Waltham, MA, USA). COLO205 colon cancer cells and SK-OV-3 ovarian cancer cells were cultured in Roswell Park Memorial Institute (RPMI) 1640 medium (Thermo Fisher Scientific Inc., Waltham, MA, USA) containing the same supplements as described above.
Cell viability was evaluated using MTT assay. […] A viable cell count was determined by adding MTT reagent (3-(4,5-Dimethyl-2-thiazolyl)-2,5-diphenyl-2H-tetrazolium bromide (MTT; SERVA, Heidelberg, Germany) at a concentration of 5 mg/mL in PBS followed by measurement of the absorbance at 570 nm for each well detected by μQuant™ universal microplate spectrophotometer (BioTek, Winowski, VT, USA). The assessment procedures were followed under the manufacturer’s instructions. The final results were represented as mean values in the same experimental group detected by a microplate reader.
On the technique in general: Tetrazolium assays rely on reduction of a dye to a coloured formazan, in cell work by metabolically active cells.

For data set [1], the system named is MDA-MB-231 cells. The data set is described as follows: Apoptosis detection (annexin V/PI, flow cytometry). It counts as cell-based, human. The note with it: MDA-MB-231, 15 h. On the procedure:
In total, 3 × 10^5 MDA-MB-231 cells were first plated and cultured in a 6-well plate for 24 h and then exposed to medium, TFBPC- or CDDP-containing medium, and incubated in the dark for another 15 h, followed by apoptotic assessment using FITC-annexin V (AV) and propidium iodide (PI) double staining cell solution (Thermo Fisher Scientific Inc., Waltham, MA, USA) for 30 min. To assess the AV-Phosphatidylserine (excitation/emission maxima of 490/525 nm) and PI-DNA (excitation/emission maxima of 535/617 nm) binding, fluorescence intensity was analyzed and recorded using flow cytometer. Scatters in a two-parameter dot plot were gated into four quadrants. Proportions in the lower right (LR) and upper right (UR) quadrants were represented as the early stage and late stage in apoptotic process.
On the technique in general: Flow cytometry measures light scatter and fluorescence of single cells or particles in a stream.

The next data set concerns MDA-MB-231. In words: Western blotting of apoptosis and autophagy markers. The note with it: MDA-MB-231, Western blotting. It is filed as cell-based, human. On the procedure:
Each sample containing 30 μg protein mixture was loaded into a well on SDS-PAGE gel and separated through electrophoresis, followed by protein determination using specific antibodies against PARP (1:1000, Cat. #9542; Cell Signaling Technology, Danvers, MA, USA), GAPDH (1:5000, Cat. GTX100118; GeneTex, Irvine, CA, USA), Bax (1:1000, Cat. ARG65612; Arigo, Glasgow, UK), Bcl-2 (1:1000, Cat. ARG55188; Arigo, Glasgow, UK) and LC3-I/II (1:1000, Cat. #12741; Cell Signaling Technology, Danvers, MA, USA). Primary antibodies were targeted by horseradish peroxidase (HRP) conjugated anti-mouse (1:5000, Cat. A9044, Sigma-Aldrich, Burlington, VT, USA) or anti-rabbit (1:5000, Cat. SI-A0545; Sigma-Aldrich, Burlington, VT, USA) secondary antibodies for visualizing immunoblots. Results were imaged by ChemiDoc system (Bio-Rad Laboratories, Hercules, CA, USA) and semi-quantification was conducted using Image Lab system (Bio-Rad Laboratories, Hercules, CA, USA).
Background: In western blotting, separated proteins are transferred to a membrane and probed.

For data set [2], the system named is MDA-MB-231 cells. The data set is described as follows: DNA fragmentation (agarose gel). It counts as cell-based, human. To be noted: MDA-MB-231, 24 h. The procedure:
DNA samples suspended in DNA lysis buffer containing 1.0 mM Tris hydrochloride (pH 7.5), 10 mM EDTA (pH 8.0), 10 mM sodium chloride and 0.5% Triton X-100.

A short description of data set [3]: PDX model: body and organ weight, CBC and blood biochemistry. It counts as in vivo. The note with it: NSG mice. An excerpt:
The procedures for the establishment of breast cancer-bearing xenograft models were modified from previous publications and approved by the Taipei Medical University (TMU) Institutional Animal Care and Use Committee (IACUC No. LAC- 2021-0546) and the Joint Institutional Review Board of Taipei Medical University (N201812005). Overall, 4- to 6-week-old NOD.Cg-PrkdcscidIl2rgtm1Wjl/SzJ (NSG) female mice purchased from BioLASCO Taiwan Co., Ltd. (Taipei, Taiwan) were housed in specific pathogen-free rooms with ad libitum feeding and 12 h light–dark cycle. Patient-derived TNBC tumors were microscopically considered for a hypervascular background and frequent mitosis features, and triple-negative results for estrogen receptor, progesterone receptor and human epidermal growth factor receptor 2 (HER2). After a week of acclimatization, patient-derived TNBC tumors dissected into 3 × 3 × 3 mm^3 were implanted using puncture needle in fat pads between the third and fourth mammary glands for each mouse. […] Tumor growth curves were generated by measuring tumor diameters and then calculating based on the same equation described above. Finally, the mice were sacrificed on day 23 after the first dose of treatments. Plasma, tumors and major organs (heart, liver, kidney, spleen and lung) were collected for toxicity assessment and metastasis evaluation. Whole blood harvested from sacrificed animals was collected in EDTA-containing or heparin-containing tubes for CBC and biochemical analysis. For biochemical analysis, whole blood was centrifuged under 2000× g for 5 min to separate plasma from blood cells and then plasma was kept and stored in a −20 °C fridge until further analysis. Concentrations of albumin, total protein, aspartate aminotransferase (AST), alanine aminotransferase (ALT) and creatinine (CREA) in plasma, numbers of red blood cells (RBC), platelets (PLT), white blood cells (WBC) and hemoglobin (HGB) concentration in EDTA-anticoagulated whole blood were determined by medical laboratory scientists in Taipei Medical University Hospital (Taipei, Taiwan).

Setting [4] is: 5 mg/kg i.v. weekly x4, day 23, reference interval 0.2–0.5.
Setting [5] is: 5 mg/kg i.v. weekly x4, day 23, reference interval 13–39.
[6] abbreviates: 5 mg/kg i.v. weekly x4, day 23, reference interval 63–227.
The mark [7] stands for this setting: 5 mg/kg i.v. weekly x4, day 23, reference interval 853–1951.
The mark [8] stands for this setting: 5 mg/kg i.v. weekly x4, day of sacrifice (day 23).
[9] abbreviates: 2.11 mg/kg i.v. weekly x4, day 23.

By IC50 is commonly meant the concentration that gives 50% inhibition. Read a low IC50 as inhibition by little substance.

Take `FC(F)C(F)(F)COCc1ccnc(-c2cc(COCC(F)(F)C(F)F)ccn2)c1.[Cl][Pt][Cl]` [TFBPC]: the “reduction in cell viability” value in the data set on SK-OV-3 (SK-OV-3, 0.625 μM) amounted to 29%. For the same compound, in the data set on SK-OV-3 (SK-OV-3, 1.23 μM), the “reduction in cell viability” value was 54%. Besides, the “reduction in cell viability” value with SK-OV-3 (SK-OV-3, 2.5 μM) turned out to be 78%. In the data set on SK-OV-3, this compound yielded an IC50 of 1.92 µM. Moreover, the “induction of apoptosis (annexin V)” value in the data set with MDA-MB-231 cells [1] is on record as “caused cells to undergo an apoptotic fate”. In the data set on MDA-MB-231, the Bax/Bcl-2 ratio entry is listed as “increase in Bax/Bcl-2 ratio”, the “LC3 I conversion to LC3 II (autophagy marker)” value is “LC3 I conversion to LC3 II” and the “cleaved form of PARP” value was “formation of the cleaved form of PARP”. In addition, the DNA fragmentation entry in the data set with MDA-MB-231 cells [2] is “DNA fragmentation confirms TFBPC-induced apoptosis”. Besides, in data set [3] (5 mg/kg i.v. weekly x4, day 23), the Kidney amounted to 0.36 ± 0.02 g, the Liver was determined as 1.58 ± 0.11 g, the Lung worked out at 0.24 ± 0.02 g and the Spleen is on record as 0.30 ± 0.05 g. The same compound displayed a CREA in data set [3] (setting [4]) of 0.10 ± 0.12 mg/dL. Further, in data set [3] (5 mg/kg i.v. weekly x4, day 23, reference interval 3.0–3.9), the Albumin amounted to 2.93 ± 0.40 g/dL. In data set [3] (5 mg/kg i.v. weekly x4, day 23, reference interval 4.5–5.5), this compound came in with a Total protein of 4.6 ± 0.32 g/dL. For the same compound, in data set [3] (5 mg/kg i.v. weekly x4, day 23, reference interval 7.75–9.61), the RBC was 6.97 ± 0.58 10^6/µL. This compound showed an HGB in data set [3] (5 mg/kg i.v. weekly x4, day 23, reference interval 12.20–13.90) of 11.8 ± 0.56 g/dL. In data set [3] (setting [5]), the ALT stood at 14.75 ± 4.50 U/L. This compound also registered an AST in data set [3] (setting [6]) of 131.75 ± 31.70 U/L. For the same compound, the PLT in data set [3] (setting [7]) is reported as 872.75 ± 81.04 10^3/µL. For the same compound, the Body weight in data set [3] (setting [8]) came out at 25.72 ± 1.22 g.
As for `N.N.[Cl][Pt][Cl]` [CDDP, Cis-diamineplatinum(II) dichloride], the IC50 in the data set with SK-OV-3 is 41 µM. Also, the “induction of apoptosis (annexin V)” value in the data set with MDA-MB-231 cells [1] is reported as “failed to induce MDA-MB-231 cells to undergo apoptosis”. In addition, in the data set with MDA-MB-231, the “LC3 I conversion to LC3 II (autophagy marker)” value is “could not induce apoptotic and autophagy signaling”. The “cleaved form of PARP” value in the data set with MDA-MB-231 was “failed to induce the formation of the cleaved form of PARP”. Further, the DNA fragmentation result in the data set on MDA-MB-231 cells [2] is recorded as “no sign of cisplatin-induced PS expression or DNA fragmentation”. Further, the Kidney is listed as 0.33 ± 0.03 g in data set [3] (setting [9]) and 0.35 ± 0.04 g in data set [3] (5 mg/kg i.v. weekly x4, day 23). Moreover, the Liver came to 1.51 ± 0.12 g in data set [3] (setting [9]) and 1.63 ± 0.22 g in data set [3] (5 mg/kg i.v. weekly x4, day 23). The Lung came out at 0.23 ± 0.01 g in data set [3] (setting [9]) and 0.23 ± 0.03 g in data set [3] (5 mg/kg i.v. weekly x4, day 23). Besides, the Spleen in data set [3] (setting [9]) stood at 0.22 ± 0.07 g; in data set [3] (5 mg/kg i.v. weekly x4, day 23) it was 0.17 ± 0.04 g. The CREA worked out at 0.20 ± 0.00 mg/dL in data set [3] (2.11 mg/kg i.v. weekly x4, day 23, reference interval 0.2–0.5) and 0.15 ± 0.10 mg/dL in data set [3] (setting [4]). Also, the WBC in data set [3] (2.11 mg/kg i.v. weekly x4, day 23, reference interval 4–10.9) is given as 6.09 ± 1.32 * 10^3/µL. In addition, the RBC in data set [3] (2.11 mg/kg i.v. weekly x4, day 23, reference interval 7.75–9.61) is listed as 7.41 ± 0.51 10^6/µL. Moreover, the ALT in data set [3] (2.11 mg/kg i.v. weekly x4, day 23, reference interval 13–39) is recorded as 14.00 ± 4.90 U/L; in data set [3] (setting [5]) it was 13.00 ± 3.27 U/L. The AST turned out to be 207.00 ± 101.18 U/L in data set [3] (2.11 mg/kg i.v. weekly x4, day 23, reference interval 63–227) and 137.00 ± 34.79 U/L in data set [3] (setting [6]). Further, the PLT is reported as 946.75 ± 150.28 10^3/µL in data set [3] (2.11 mg/kg i.v. weekly x4, day 23, reference interval 853–1951) and 877.00 ± 170.99 10^3/µL in data set [3] (setting [7]). Further, the Body weight in data set [3] (2.11 mg/kg i.v. weekly x4, day of sacrifice (day 23)) worked out at 24.06 ± 2.18 g; in data set [3] (setting [8]), 25.48 ± 0.98 g. The same compound gave a Heart in data set [3] (5 mg/kg i.v. weekly x4, day 23) of 0.11 ± 0.02 g.
